In PubChem BioAssay AID248 (DTP/NCI, 2004) one finds T/C data, which are given here for 5 compounds.

Values joined by “and” are separate entries in the source; they are usually repeats but may differ in a detail not shown here. Identical values can stand only once. Inconclusive results and toxic doses are left out.

The test system of this experiment is L1210 leukemia ip in BDF1 mice, survival T/C. As to the kind of experiment: NCI In Vivo Anticancer Drug Screen. Data for tumor model L1210 Leukemia (intraperitoneal) in B6D2F1 (BDF1) mice. The following applies: endpoint: mean survival time, higher = longer survival. Summed up:
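Survival endpoint. Drug-treated group vs vehicle group, expressed as T divided by C. Tumor passaged by transplantation.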

The mark [1] stands for this setting: dose: 400.0 mg/kg/injection, schedule: Q01DX001 (ip), vehicle: saline.
Setting [2] is: dose: 50.0 mg/kg/injection, schedule: Q01DX001 (ip), vehicle: saline.
The mark [3] stands for this setting: dose: 100.0 mg/kg/injection, schedule: Q01DX001 (ip), vehicle: saline.
Setting [4] is: dose: 200.0 mg/kg/injection, schedule: Q01DX001 (ip), vehicle: saline.

Regarding `CCNc1nncs1`, the T/C (dose: 7.0 mg/kg/injection, schedule: Q03HX032 (ip), vehicle: saline) was 97 % of control; the T/C (dose: 11.0 mg/kg/injection, schedule: Q03HX032 (ip), vehicle: saline) is 104 % of control; the T/C (dose: 16.0 mg/kg/injection, schedule: Q03HX032 (ip), vehicle: saline) was 105 % of control; the T/C (dose: 17.25 mg/kg/injection, schedule: Q01DX Z (ip), vehicle: carboxymethylcellulose (CMC)) was 102 % of control; the T/C (dose: 24.0 mg/kg/injection, schedule: Q03HX032 (ip), vehicle: saline) is 101 % of control; the T/C (dose: 27.0 mg/kg/injection, schedule: Q01DX015 (ip), vehicle: saline) was 106 % of control. Further, the T/C is, setting by setting: (dose: 27.6 mg/kg/injection, schedule: Q01DX Z (ip), vehicle: carboxymethylcellulose (CMC)) 100 % of control and 114 % of control; (dose: 34.5 mg/kg/injection, schedule: Q01DX Z (ip), vehicle: carboxymethylcellulose (CMC)) 98 % of control and 101 % of control; (dose: 36.0 mg/kg/injection, schedule: Q03HX032 (ip), vehicle: saline) 118 % of control; (dose: 40.0 mg/kg/injection, schedule: Q01DX015 (ip), vehicle: saline) 103 % of control; (dose: 46.0 mg/kg/injection, schedule: Q01DX Z (ip), vehicle: carboxymethylcellulose (CMC)) 100 % of control and 107 % of control; (dose: 60.0 mg/kg/injection, schedule: Q01DX015 (ip), vehicle: saline) 108 % of control. Moreover, the T/C runs as follows: (dose: 64.0 mg/kg/injection, schedule: Q02DX010 (ip), vehicle: carboxymethylcellulose (CMC)) 117 % of control; (dose: 75.0 mg/kg/injection, schedule: Q01DX Z (ip), vehicle: saline) 170 % of control; (dose: 96.0 mg/kg/injection, schedule: Q02DX010 (ip), vehicle: carboxymethylcellulose (CMC)) 123 % of control; (dose: 103.5 mg/kg/injection, schedule: Q01DX Z (ip), vehicle: carboxymethylcellulose (CMC)) 123 % of control; (dose: 138.0 mg/kg/injection, schedule: Q01DX Z (ip), vehicle: carboxymethylcellulose (CMC)) 112 % of control; (dose: 150.0 mg/kg/injection, schedule: Q01DX Z (ip), vehicle: saline) 176 % of control. Besides, the T/C reads like this: (dose: 150.0 mg/kg/injection, schedule: Q01DX Z (oral), vehicle: saline) 115 % of control; (dose: 265.0 mg/kg/injection, schedule: Q01DX001 (ip), vehicle: saline) 104 % of control; (dose: 270.0 mg/kg/injection, schedule: Q01DX001 (ip), vehicle: saline) 106 % of control; (dose: 300.0 mg/kg/injection, schedule: Q01DX Z (oral), vehicle: saline) 98 % of control; (dose: 337.0 mg/kg/injection, schedule: Q02DX010 (ip), vehicle: carboxymethylcellulose (CMC)) 120 % of control; under setting [1], 109 % of control. For the same compound, the T/C was 112 % of control and 76 % of control (dose: 562.0 mg/kg/injection, schedule: Q02DX010 (ip), vehicle: carboxymethylcellulose (CMC)); 84 % of control and 88 % of control (dose: 562.5 mg/kg/injection, schedule: Q02DX010 (ip), vehicle: carboxymethylcellulose (CMC)); 117 % of control (dose: 600.0 mg/kg/injection, schedule: Q01DX001 (ip), vehicle: saline); 87 % of control (dose: 600.0 mg/kg/injection, schedule: Q01DX Z (oral), vehicle: saline).

In the case of `Cc1ccc(Nc2n[nH]c(=S)s2)c(C)c1`, the T/C runs as follows: (dose: 100.0 mg/kg/injection, schedule: Q04DX002 (ip), vehicle: gum acacia) 96 % of control; (dose: 200.0 mg/kg/injection, schedule: Q04DX002 (ip), vehicle: gum acacia) 96 % of control; (dose: 400.0 mg/kg/injection, schedule: Q04DX002 (ip), vehicle: gum acacia) 111 % of control.

Consider `COc1cccc(CC(=O)c2c[nH]c3ccccc23)c1`, for which the T/C is 104 % of control under setting [2], 101 % of control under setting [3], 98 % of control under setting [4] and 101 % of control under setting [1].

Take `CCOC(=O)C1(c2cc(NS(=O)(=O)N(C)C)c(Cl)cc2NS(=O)(=O)N(C)C)CCCC1=O` (stereo not given): the T/C was 104 % of control under setting [2], 102 % of control under setting [3] and 91 % of control under setting [4].

For the compound `CN(C)CC(=O)c1ccc(O)c(O)c1`, the T/C reads like this: (dose: 29.5 mg/kg/injection, schedule: Q#A X Z (ip), vehicle: saline) 123 % of control; (dose: 44.5 mg/kg/injection, schedule: Q#A X Z (ip), vehicle: saline) 124 % of control; (dose: 50.0 mg/kg/injection, schedule: Q01DX Z (ip), vehicle: saline) 109 % of control; (dose: 75.0 mg/kg/injection, schedule: Q01DX010 (ip), vehicle: saline) 112 % of control and 114 % of control; (dose: 75.0 mg/kg/injection, schedule: Q01DX Z (ip), vehicle: carboxymethylcellulose (CMC)) 110 % of control; (dose: 75.0 mg/kg/injection, schedule: Q01DX Z (ip), vehicle: clinical formulation) 110 % of control and 113 % of control. Further, the T/C reads like this: (dose: 75.0 mg/kg/injection, schedule: Q01DX Z (ip), vehicle: water) 112 % of control; (dose: 100.0 mg/kg/injection, schedule: Q01DX Z (ip), vehicle: saline) 116 % of control; (dose: 133.0 mg/kg/injection, schedule: Q01DX Z (ip), vehicle: saline) 124 % of control; (dose: 150.0 mg/kg/injection, schedule: Q01DX Z (ip), vehicle: carboxymethylcellulose (CMC)) 112 % of control; (dose: 150.0 mg/kg/injection, schedule: Q01DX Z (ip), vehicle: clinical formulation) 116 % of control; (dose: 150.0 mg/kg/injection, schedule: Q01DX Z (ip), vehicle: water) 124 % of control. The T/C was 118 % of control (dose: 150.0 mg/kg/injection, schedule: Q#A X Z (ip), vehicle: saline); 104 % of control (dose: 200.0 mg/kg/injection, schedule: Q01DX007 (iv), vehicle: saline); 108 % of control (dose: 200.0 mg/kg/injection, schedule: Q01DX Z (sc), vehicle: saline); 100 % of control (dose: 200.0 mg/kg/injection, schedule: Q## X Z (ip), vehicle: saline); 123 % of control (dose: 266.0 mg/kg/injection, schedule: Q03DX Z (ip), vehicle: saline); 95 % of control (dose: 300.0 mg/kg/injection, schedule: Q01DX007 (iv), vehicle: saline). Besides, the T/C runs as follows: (dose: 300.0 mg/kg/injection, schedule: Q01DX Z (ip), vehicle: clinical formulation) 118 % of control; (dose: 300.0 mg/kg/injection, schedule: Q01DX Z (ip), vehicle: water) 116 % of control; (dose: 300.0 mg/kg/injection, schedule: Q01DX Z (sc), vehicle: saline) 108 % of control; (dose: 300.0 mg/kg/injection, schedule: Q## X Z (ip), vehicle: saline) 100 % of control; (dose: 400.0 mg/kg/injection, schedule: Q03DX Z (ip), vehicle: saline) 117 % of control; (dose: 450.0 mg/kg/injection, schedule: Q01DX Z (ip), vehicle: saline) 153 % of control. Also, the T/C (dose: 450.0 mg/kg/injection, schedule: Q01DX Z (sc), vehicle: saline) was 103 % of control; the T/C (dose: 450.0 mg/kg/injection, schedule: Q## X Z (ip), vehicle: saline) was 100 % of control; the T/C (dose: 532.0 mg/kg/injection, schedule: Q01DX Z (oral), vehicle: saline) was 94 % of control; the T/C (dose: 600.0 mg/kg/injection, schedule: Q03DX Z (ip), vehicle: saline) was 102 % of control and 112 % of control (2×); the T/C (dose: 622.0 mg/kg/injection, schedule: Q07DX Z (ip), vehicle: saline) was 115 % of control; the T/C (dose: 675.0 mg/kg/injection, schedule: Q01DX Z (sc), vehicle: saline) was 116 % of control. In addition, the T/C runs as follows: (dose: 675.0 mg/kg/injection, schedule: Q## X Z (ip), vehicle: saline) 102 % of control; (dose: 800.0 mg/kg/injection, schedule: Q01DX Z (ip), vehicle: carboxymethylcellulose (CMC)) 102 % of control; (dose: 800.0 mg/kg/injection, schedule: Q01DX Z (oral), vehicle: saline) 101 % of control and 88 % of control; (dose: 933.0 mg/kg/injection, schedule: Q07DX Z (ip), vehicle: saline) 104 % of control; (dose: 1200.0 mg/kg/injection, schedule: Q01DX Z (oral), vehicle: saline) 102 % of control and 106 % of control; (dose: 1400.0 mg/kg/injection, schedule: Q07DX Z (ip), vehicle: saline) 113 % of control. Further, for the setting “dose: 1800.0 mg/kg/injection, schedule: Q01DX Z (oral), vehicle: saline”, the T/C was 100 % of control.
